Results reported in patent publication US11098055B2, “Ester ACC inhibitors and uses thereof” (Gilead Apollo, LLC, priority 2015, dated 2021).
Values after ≈ are worked out from the molar mass of the structure shown. Where two headings read alike, the source gives them in different places.

Experiments:
C. albicans ATCC 90028 = assay: Anti-Fungal (Candida) Activity Assay, broth microtiter MIC; format: cell-based; conditions: ATCC90028, 48 h, 3 replicates, MIC read at 48 h
How it was run: (§1)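 Broth microdilution per CLSI M27-A3 in RPMI 1640 + MOPS, at a final inoculum of 2.5×10^3 CFU/mL. Compound DMSO stocks were diluted in water to a 128 μg/mL working solution. MIC was read visually against the growth control at 48 h.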

[1] = system: C. parapsilosis ATCC 22019; assay: as above; format: cell-based; conditions: Lodderomyces parapsilosis, ATCC22019, 48 h, 3 replicates, MIC read at 48 h
How it was run: as §1

C. krusei ATCC 6258 = assay: as above; format: cell-based, Candida krusei; conditions: Pichia kudriavzevii, ATCC6258, 48 h, 3 replicates, MIC read at 48 h
How it was run: as §1

Botrtyis cinerea (Bc) = assay: Growth inhibition assay of fungal pathogens; format: cell-based; conditions: 48 h, read-out: Concentration at 90% Inhibition Bc
How it was run: (§2)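 First, spores diluted in 17% V8 medium were combined with compound (final 50, 10 and 2 ppm, or alternatively 2, 0.4 and 0.08 ppm). Next, absorbance at 600 nm was recorded after 24 and 48 h, minus a media + 2% DMSO blank. Finally, 48 h values gave percent inhibition.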

[2] = system: Collectotrichum graminicola (Cg); assay: Growth inhibition assay of fungal pathogens; format: cell-based; conditions: 48 h, read-out: Concentration at 90% Inhibition Cg
How it was run: as §2

Diplodia maydis (Dm) = assay: Growth inhibition assay of fungal pathogens; format: cell-based; conditions: Stenocarpella maydis, 48 h, read-out: Concentration at 90% Inhibition Dm
How it was run: as §2

[3] = system: Fusarium moniliforme (Fm); assay: Growth inhibition assay of fungal pathogens; format: cell-based; conditions: Fusarium verticillioides, 48 h, read-out: Concentration at 90% Inhibition Fm
How it was run: as §2

[4] = system: Fusarium virguliforme (Fv); assay: Growth inhibition assay of fungal pathogens; format: cell-based; conditions: 48 h, read-out: Concentration at 90% Inhibition Fv
How it was run: as §2

[5] = system: Phytophthora capsici (Pc); assay: Growth inhibition assay of fungal pathogens; format: cell-based; conditions: 48 h, read-out: Concentration at 90% Inhibition Pc
How it was run: as §2

Rhizoctonia solani (Rs) = assay: Growth inhibition assay of fungal pathogens; format: cell-based; conditions: 48 h, read-out: Concentration at 90% Inhibition Rs
How it was run: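 Spores, or mycelial plugs for Rhizoctonia, in 17% V8 medium (¼ PDB for plugs) were exposed to compound at final 50, 10 and 2 ppm or 2, 0.4 and 0.08 ppm, with 2% DMSO. Growth was read by OD600 with blank subtraction plus visual rating; percent inhibition at 48 h is relative to 2% DMSO control.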

Septoria tritici (St) = assay: Growth inhibition assay of fungal pathogens; format: cell-based; conditions: Zymoseptoria tritici, 48 h, read-out: Concentration at 90% Inhibition St
How it was run: as §2

| SMILES | MIC (C. albicans ATCC 90028; Table 3a) | MIC (C. albicans ATCC 90028; Table 3b (additional results)) | MIC ([1]; Table 3a) | MIC ([1]; Table 3b (additional results)) | MIC (C. krusei ATCC 6258; Table 3a) | MIC (C. krusei ATCC 6258; Table 3b (additional results)) | IC90 (Botrtyis cinerea (Bc); Table 4a) | IC90 (Botrtyis cinerea (Bc); Table 4b) | IC90 ([2]; Table 4a) | IC90 ([2]; Table 4b) | IC90 (Diplodia maydis (Dm); Table 4a) | IC90 (Diplodia maydis (Dm); Table 4b) | IC90 ([3]; Table 4a) | IC90 ([3]; Table 4b) | IC90 ([4]; Table 4a) | IC90 ([4]; Table 4b) | IC90 ([5]; Table 4a) | IC90 ([5]; Table 4b) | IC90 (Rhizoctonia solani (Rs); Table 4a) | IC90 (Rhizoctonia solani (Rs); Table 4b) | also measured |
| --- | --- | --- | --- | --- | --- | --- | --- | --- | --- | --- | --- | --- | --- | --- | --- | --- | --- | --- | --- | --- | --- |
| CCOC(=O)c1sc2c(c1C)c(=O)n(C(C)(C)C(=O)N1CCCC1)c(=O)n2C[C@H](OCCO)c1cc(F)ccc1OC [Compound I-12, (R)-ethyl 1-(2-(5-fluoro-2-methoxyphenyl)-2-(2-hydroxy-ethoxy)ethyl)-5-methyl-3-(2-methyl-1-oxo-1-(pyrrolidin-1-yl)propan-2-yl)-2,4-dioxo-1,2,3,4-tetrahydrothieno[2,3-d]pyrimidine-6-carboxylate] | > 4.1 µg/mL | 2.1 to 4 µg/mL (≈ 3.47 to 6.6 µM) | > 4.1 µg/mL | 0.25 to 1 µg/mL (≈ 0.413 to 1.65 µM) | 2.1 to 4 µg/mL (≈ 3.47 to 6.6 µM) | 2.1 to 4 µg/mL (≈ 3.47 to 6.6 µM) | 2 µg/mL (≈ 3.3 µM) | 2 µg/mL (≈ 3.3 µM) | 0.4 µg/mL (≈ 0.66 µM) | 0.4 µg/mL (≈ 0.66 µM) | 2 µg/mL (≈ 3.3 µM) | 2 µg/mL (≈ 3.3 µM) | 0.4 µg/mL (≈ 0.66 µM) | 0.4 µg/mL (≈ 0.66 µM) | 2 µg/mL (≈ 3.3 µM) | 2 µg/mL (≈ 3.3 µM) | ≥ 50 µg/mL | ≥ 50 µg/mL | 0.4 µg/mL (≈ 0.66 µM) | 0.4 µg/mL (≈ 0.66 µM) | IC90 (Septoria tritici (St); Table 4a): ≥ 50 µg/mL; IC90 (Septoria tritici (St); Table 4b): ≥ 50 µg/mL |
| CCOC(=O)c1sc2c(c1C)c(=O)n(C(C)(C)C(=O)N1CCCC1)c(=O)n2C[C@H](OCCOC)c1cc(F)ccc1OC [Compound I-13, (R)-ethyl 1-(2-(5-fluoro-2-methoxyphenyl)-2-(2-methoxy-ethoxy)ethyl)-5-methyl-3-(2-methyl-1-oxo-1-(pyrrolidin-1-yl)propan-2-yl)-2,4-dioxo-1,2,3,4-tetrahydrothieno[2,3-d]pyrimidine-6-carboxylate] | > 4.1 µg/mL | 2.1 to 4 µg/mL (≈ 3.39 to 6.45 µM) | > 4.1 µg/mL | 2.1 to 4 µg/mL (≈ 3.39 to 6.45 µM) | > 4.1 µg/mL | 2.1 to 4 µg/mL (≈ 3.39 to 6.45 µM) | 2 µg/mL (≈ 3.23 µM) | 2 µg/mL (≈ 3.23 µM) | 2 µg/mL (≈ 3.23 µM) | 2 µg/mL (≈ 3.23 µM) | ≥ 50 µg/mL | 10 µg/mL (≈ 16.1 µM) | 0.4 µg/mL (≈ 0.645 µM) | 0.4 µg/mL (≈ 0.645 µM) | 2 µg/mL (≈ 3.23 µM) | 2 µg/mL (≈ 3.23 µM) | ≥ 50 µg/mL | ≥ 50 µg/mL | ≥ 50 µg/mL | 10 µg/mL (≈ 16.1 µM) | IC90 (Septoria tritici (St); Table 4a): ≥ 50 µg/mL; IC90 (Septoria tritici (St); Table 4b): ≥ 50 µg/mL |
| CCOC(=O)c1sc2c(c1C)c(=O)n(C(C)(C)C(N)=O)c(=O)n2C[C@H](OCCC#N)c1cc(F)ccc1OC [Compound I-14, (R)-ethyl 3-(1-amino-2-methyl-1-oxopropan-2-yl)-1-(2-(2-cyanoethoxy)-2-(5-fluoro-2-methoxyphenyl)ethyl)-5-methyl-2,4-dioxo-1,2,3,4-tetrahydro-thieno[2,3-d]pyrimidine-6-carboxylate] | > 4.1 µg/mL | 2.1 to 4 µg/mL (≈ 3.75 to 7.14 µM) | > 4.1 µg/mL | 1.1 to 2 µg/mL (≈ 1.96 to 3.57 µM) | > 4.1 µg/mL | 2.1 to 4 µg/mL (≈ 3.75 to 7.14 µM) | 2 µg/mL (≈ 3.57 µM) | 2 µg/mL (≈ 3.57 µM) | ≥ 50 µg/mL | ≥ 50 µg/mL | ≥ 50 µg/mL | ≥ 50 µg/mL | 0.4 µg/mL (≈ 0.714 µM) | 0.4 µg/mL (≈ 0.714 µM) | ≥ 50 µg/mL | 10 µg/mL (≈ 17.8 µM) | ≥ 50 µg/mL | ≥ 50 µg/mL | ≥ 50 µg/mL | 10 µg/mL (≈ 17.8 µM) | IC90 (Septoria tritici (St); Table 4a): ≥ 50 µg/mL; IC90 (Septoria tritici (St); Table 4b): ≥ 50 µg/mL |
| CCOC(=O)c1sc2c(c1C)c(=O)n(C(C)(C)C(=O)NC(C)C)c(=O)n2C[C@H](OCCC#N)c1cc(F)ccc1OC [Compound I-15, (R)-ethyl 1-(2-(2-cyanoethoxy)-2-(5-fluoro-2-methoxy-phenyl)ethyl)-3-(1-(isopropylamino)-2-methyl-1-oxopropan-2-yl)-5-methyl-2,4-dioxo-1,2,3,4-tetrahydrothieno[2,3-d]pyrimidine-6-carboxylate] | 0.25 to 1 µg/mL (≈ 0.415 to 1.66 µM) | 0.25 to 1 µg/mL (≈ 0.415 to 1.66 µM) | 0.25 to 1 µg/mL (≈ 0.415 to 1.66 µM) | 2.1 to 4 µg/mL (≈ 3.48 to 6.64 µM) | 0.25 to 1 µg/mL (≈ 0.415 to 1.66 µM) | 0.25 to 1 µg/mL (≈ 0.415 to 1.66 µM) | 0.4 µg/mL (≈ 0.664 µM) | 0.4 µg/mL (≈ 0.664 µM) | 0.08 µg/mL (≈ 0.133 µM) | 0.08 µg/mL (≈ 0.133 µM) | 0.08 µg/mL (≈ 0.133 µM) | 0.08 µg/mL (≈ 0.133 µM) | 0.08 µg/mL (≈ 0.133 µM) | 0.08 µg/mL (≈ 0.133 µM) | 0.4 µg/mL (≈ 0.664 µM) | 0.4 µg/mL (≈ 0.664 µM) | ≥ 50 µg/mL | 10 µg/mL (≈ 16.6 µM) | 0.08 µg/mL (≈ 0.133 µM) | 0.08 µg/mL (≈ 0.133 µM) | IC90 (Septoria tritici (St); Table 4a): ≥ 50 µg/mL; IC90 (Septoria tritici (St); Table 4b): 10 µg/mL (≈ 16.6 µM) |
